SMILES strings stand for the structures.

This assay has as its target T1, Fructose-1,6-bisphosphatase 1 (Mus musculus, UniProt Q9QXD6).
T1 sequence (Q9QXD6 whole entry): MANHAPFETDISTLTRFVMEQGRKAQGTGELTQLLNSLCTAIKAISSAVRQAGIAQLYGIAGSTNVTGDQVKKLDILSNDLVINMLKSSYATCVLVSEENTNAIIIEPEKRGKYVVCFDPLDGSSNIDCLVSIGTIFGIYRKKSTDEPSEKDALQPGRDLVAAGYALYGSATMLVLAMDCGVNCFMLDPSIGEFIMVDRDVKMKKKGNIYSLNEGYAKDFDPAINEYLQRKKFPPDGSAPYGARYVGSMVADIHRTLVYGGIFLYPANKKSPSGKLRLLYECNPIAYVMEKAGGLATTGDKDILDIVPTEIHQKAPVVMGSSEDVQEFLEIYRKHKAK
Description: Inhibition of fructose-1,6-bisphosphatase in mouse liver homogenates by colorimetric phosphate assay. It is filed as tissue-based.
What is called IC50 is the midpoint of a concentration-inhibition curve. In turn, `O=[N+]([O-])c1ccc(S(=O)(=O)n2cccc2)cc1` came in with an IC50 of 109 µM.
As for `COC(=O)c1ccc2[nH]c3ccccc3c2c1`, the IC50 was more than 300 µM.
For the compound `CCOC(=O)C(O)(c1c[nH]c2ccc(I)cc12)C(F)(F)F` (stereo not drawn), the IC50 came out at 13.3 µM.
`O=S(=O)(c1ccccc1)n1cccc1`: the IC50 turned out to be 76.2 µM.
As for `O=[N+]([O-])c1ccc(S(=O)(=O)n2c3ccccc3c3ccccc32)cc1`, the IC50 stood at 177 µM.
In the case of `COc1ccc(S(=O)(=O)n2c3ccccc3c3ccccc32)cc1` it was more than 250 µM; in that of `Fc1ccc(-c2cc(-c3ccc(F)cc3)n(-c3cccc(C(F)(F)F)c3)n2)cc1`, 75.5 µM; in that of `COc1ccc(S(=O)(=O)n2ccc3ccccc32)cc1`, more than 300 µM.
In turn, `CCOC(=O)CC(O)(c1[nH]c(C)cc1C)C(F)(F)F` (stereo not drawn) returned an IC50 of 4.81 µM.
`COc1ccc2[nH]c3c(C)ccc(C)c3c2c1` displayed an IC50 of more than 300 µM.
The compound `O=[N+]([O-])c1ccc(-n2nc(-c3ccccc3)cc2-c2ccccc2)cc1` yielded an IC50 of more than 300 µM.
As for `O=S(=O)(c1ccc2ccccc2c1)n1ccc2ccccc21`, the figure is more than 300 µM; as for `FC(F)(F)c1cccc(-n2nc(-c3ccccc3)cc2-c2ccccc2)c1`, 6.04 µM.
In the case of `O=C(c1ccc(F)cc1)n1ccc2ccccc21` it was 129 µM; in that of `Fc1ccc(-c2cc(-c3ccc(F)cc3)n(-c3ccccc3)n2)cc1`, 151 µM.
In the case of `O=C(c1ccc(C(F)(F)F)cc1)n1ccc2ccccc21` it was 3.09 µM.
In turn, `CCOC(=O)C(O)(c1ccc[nH]1)C(F)(F)F` (stereo not drawn) had an IC50 of 25.7 µM.
As to `COc1ccc(S(=O)(=O)n2cccc2)cc1`, the IC50 was 246 µM.
In turn, `CCOC(=O)CC(O)(c1cccn1C)C(F)(F)F` (stereo not drawn) yielded an IC50 of 41.8 µM.
Compound `CCOC(=O)C(O)(c1cn(C)c2ccccc12)C(F)(F)F` (stereo not drawn) displayed an IC50 of 11.9 µM.
Turning to `Cc1ccc(S(=O)(=O)n2cccc2)cc1`, the IC50 was more than 300 µM.
`O=S(=O)(c1ccc2ccccc2c1)n1c2ccccc2c2ccccc21` had an IC50 of more than 300 µM.
As for `CCOC(=O)CC(O)(c1ccc[nH]1)C(F)(F)F` (stereo not drawn), the figure is 25.7 µM; as for `O=[N+]([O-])c1ccc(S(=O)(=O)n2ccc3ccccc32)cc1`, 185 µM.
As for `Cc1ccccc1S(=O)(=O)n1cccc1`, the figure is more than 250 µM; as for `CCOC(=O)C(O)(c1c[nH]c2ccc(C)cc12)C(F)(F)F` (stereo not drawn), 36 µM.
As for `O=C(c1ccc([N+](=O)[O-])cc1)n1ccc2ccccc21`, the figure is more than 300 µM.
Consider `O=S(=O)(c1ccccc1)n1ccc2ccccc21`, for which half-maximal inhibition (IC50) required 119 µM.

Source of the values: ChEMBL document CHEMBL1143383, “Novel heteroaromatic organofluorine inhibitors of fructose-1,6-bisphosphatase” (J Med Chem, 2009).
